Experimental data reported in patent publication US20190051326A1, “Ionic Liquid, Lubricant, and Magnetic Recording Medium” (priority 2016, published 2019).

What was measured:
[1] = Thermal stability, TG/DTA measurement; details: for thermal stability higher compared to Z-DOL (Comparative Example 10C) / thermal stability higher compared to Z-TETRAOL (Comparative Example 11C): difference of weight reduction temperatures; for Weight reduction temperature 5% / Weight reduction temperature 10% / Weight reduction temperature 20%: air 200 mL/min, 30° C. to 600° C., heating rate 10° C./min
[2] = in acetonitrile; cited from earlier work
[3] = Solubility to fluorine-based solvent (Vertrel XF), 1.0/0.5/0.1 parts by mass added; details: Vertrel XF [CF3(CHF)2CF2CF3], 25° C., ultrasonic waves 5 minutes, left 1 day, visual observation; 0.5 and 0.1 parts by mass per 100 parts
Experimental: Then, the resultant was left to stand for 1 day and solubility thereof was visually observed.
Then, the resultant was left to stand for 1 day and solubility thereof was visually observed, followed by evaluation based on the following evaluation criteria.
[Evaluation Criteria] • 0.5% by mass or more:
When 0.5 parts by mass of the ionic liquid was added, dissolution was found. • 0.1% by mass or more but less than 0.5% by mass:
When 0.5 parts by mass of the ionic liquid was added, no dissolution was found. However, when 0.1 parts by mass of the ionic liquid was added, dissolution was found. • Less than 0.1% by mass:
When 0.5 parts by mass of the ionic liquid was added, no dissolution was found. Moreover, when 0.1 parts by mass of the ionic liquid was added, no dissolution was found.

[4] = Solubility to solvents (Vertrel XF, n-hexane, ethanol); assay type: physicochemical; details: 25° C., visual observation after 1 day; for Solubility Fluorine-based solvent: Vertrel XF, 0.2 parts by mass per 100 parts; for Solubility Ethanol / Solubility n-Hexane: 0.5 parts by mass per 100 parts
Experimental: To a predetermined mass of Vertrel XF, n-hexane, or ethanol, each of the ionic liquids was added and was irradiated with ultrasonic waves for 5 minutes. Then, the resultant was left to stand for 1 day and solubility thereof was visually observed.
Specifically, to 100 parts by mass of Vertrel XF (25° C.), 0.2 parts by mass of the ionic liquid was added and was irradiated with ultrasonic waves for 5 minutes. Then, the resultant was left to stand for 1 day and solubility thereof was visually observed, followed by evaluation based on the following evaluation criteria. In the cases of n-hexane and ethanol, each of the ionic liquids (0.5 parts by mass) was added to 100 parts by mass of n-hexane or ethanol at 25° C. The resultant was irradiated with ultrasonic waves for 5 minutes. Then, the resultant was left to stand for 1 day and solubility thereof was visually observed, followed by evaluation based on the following evaluation criteria.
<<Vertrel XF>> • 0.2% by mass or more:
When 0.2 parts by mass of the ionic liquid was added, dissolution was found. • Less than 0.2% by mass:
When 0.2 parts by mass of the ionic liquid was added, no dissolution was found.
<<n-Hexane and Ethanol>> • 0.5% by mass or more:
When 0.5 parts by mass of the ionic liquid was added, dissolution was found. • Less than 0.5% by mass:

Compound	Weight reduction temperature 5% [1] [°C]	Weight reduction temperature 10% [1] [°C]	Weight reduction temperature 20% [1] [°C]	also measured
CCCCCCCCCCCCCCCCCC[n+]1ccn(CCCO)c1CCCCCCCCCCCCCCCCC.O=S(=O)([N-]S(=O)(=O)C(F)(F)C(F)(F)C(F)(F)C(F)(F)F)C(F)(F)C(F)(F)C(F)(F)C(F)(F)F	–	–	–	thermal stability higher compared to Z-DOL (Comparative Example 10C) [1]: ≥ 160 °C; thermal stability higher compared to Z-TETRAOL (Comparative Example 11C) [1]: ≥ 85 °C
CCCCCCCCCCCCCC[N+](C)(C)CCCO.O=S(=O)([N-]S(=O)(=O)C(F)(F)C(F)(F)C(F)(F)C(F)(F)F)C(F)(F)C(F)(F)C(F)(F)C(F)(F)F	–	–	–	thermal stability higher compared to Z-DOL (Comparative Example 10C) [1]: ≥ 145 °C; thermal stability higher compared to Z-TETRAOL (Comparative Example 11C) [1]: ≥ 90 °C
CCCCCCCCCCCCCCCCCC[N+](C)(C)CCCO.O=S(=O)([N-]S(=O)(=O)C(F)(F)C(F)(F)C(F)(F)C(F)(F)F)C(F)(F)C(F)(F)C(F)(F)C(F)(F)F	–	–	–	thermal stability higher compared to Z-DOL (Comparative Example 10C) [1]: ≥ 150 °C; thermal stability higher compared to Z-TETRAOL (Comparative Example 11C) [1]: ≥ 90 °C
CCCCCCCCCCCCCCCCCC[N+]1(CCCO)CCCC1.O=S(=O)([N-]S(=O)(=O)C(F)(F)C(F)(F)C(F)(F)C(F)(F)F)C(F)(F)C(F)(F)C(F)(F)C(F)(F)F	–	–	–	thermal stability higher compared to Z-DOL (Comparative Example 10C) [1]: ≥ 160 °C; thermal stability higher compared to Z-TETRAOL (Comparative Example 11C) [1]: ≥ 100 °C
CCCCCCCCCCCCCCCCCC[n+]1ccn(CCCO)c1.O=S(=O)([N-]S(=O)(=O)C(F)(F)C(F)(F)C(F)(F)C(F)(F)F)C(F)(F)C(F)(F)C(F)(F)C(F)(F)F	–	–	–	thermal stability higher compared to Z-DOL (Comparative Example 10C) [1]: ≥ 150 °C; thermal stability higher compared to Z-TETRAOL (Comparative Example 11C) [1]: ≥ 90 °C
O=S(=O)(C(S(=O)(=O)C(F)(F)F)S(=O)(=O)C(F)(F)F)C(F)(F)F [(CF3SO2)3CH]	–	–	–	pKa [2]: −3.7
CCCCCCCCCCCCCCCCCC[n+]1ccn(CCCC)c1.O=S1(=O)[N-]S(=O)(=O)C(F)(F)C(F)(F)C1(F)F [Comparative Example 2A, hexafluorocyclopropane-1,3-bis(sulfonyl)imide-1-butyl-3-n-octadecylimidazolium, reference compound]	347.2	367.0	387.8	Fluorine-based solvent solubility [3]: Less than 0.1% by % by mass
CCCCCCCCCCCCCCCCCCC1CCCCN2CCCN=C12.O=S1(=O)NS(=O)(=O)C(F)(F)C(F)(F)C1(F)F (stereo not drawn) [Comparative Example 4A, hexafluorocyclopropane-1,3-bis(sulfonyl)imide-6-octadecyl-1,8-diazabicyclo[5.4.0]-7-undecenium, reference compound]	346.3	384.1	414.0	Fluorine-based solvent solubility [3]: Less than 0.1% by % by mass
CCCCCCCCCCCCCCCCCCn1ccnc1CCCCCCCCCCCCCCCCC.O=S1(=O)NS(=O)(=O)C(F)(F)C(F)(F)C1(F)F [Comparative Example 7A, hexafluorocyclopropane-1,3-bis(sulfonyl)imide-1-octadecyl-2-heptadecylimidazolium, reference compound]	303.7	366.4	405.0	Solubility Fluorine-based solvent [4]: Less than 0.2% by mass; Solubility Ethanol [4]: ≥ 0.5% by mass; Solubility n-Hexane [4]: < 0.5% by mass
CCCCCCCCCCCCCCCCCCN.O=S(=O)(NS(=O)(=O)C(F)(F)C(F)(F)C(F)(F)C(F)(F)F)C(F)(F)C(F)(F)C(F)(F)C(F)(F)F [Comparative Example 8A, bis(nonafluorobutanesulfonyl)imide-octadecylammonium, reference compound]	311.8	329.8	348.0	Solubility Fluorine-based solvent [4]: Less than 0.2% by mass; Solubility Ethanol [4]: ≥ 0.5% by mass; Solubility n-Hexane [4]: < 0.5% by mass
CCCCCCCCCCCCCCCCCC[n+]1ccn(CCCO)c1.O=S(=O)([N-]S(=O)(=O)C(F)(F)C(F)(F)C(F)(F)C(F)(F)F)C(F)(F)C(F)(F)C(F)(F)C(F)(F)F [Example 2A, bis(nonafluorobutanesulfonyl)imide1-3′hydroxypropyl-3-octadecylimidazolium]	327.7	361.7	389.3	–
CCCCCCCCCCCCCCCCCC[N+]1(CCCO)CCCC1.O=S(=O)([N-]S(=O)(=O)C(F)(F)C(F)(F)C(F)(F)C(F)(F)F)C(F)(F)C(F)(F)C(F)(F)C(F)(F)F [Example 3A, bis(nonafluorobutanesulfonyl)imide-N-3′hydroxypropyl-N-octadecylpyrrolidinium]	349.8	370.8	387.6	–
CCCCCCCCCCCCCCCCCCC1CCCCN2CCC[N+](CCCO)=C12.O=S(=O)([N-]S(=O)(=O)C(F)(F)C(F)(F)C(F)(F)C(F)(F)F)C(F)(F)C(F)(F)C(F)(F)C(F)(F)F (stereo not drawn) [Example 5A, bis(nonafluorobutanesulfonyl)imide-6-octadecyl-8-3′-hydroxypropyl-1,8-diazabicyclo[5.4 0.0]-7-undecenium]	326.2	360.8	387.7	thermal stability higher compared to Z-DOL (Comparative Example 10C) [1]: ≥ 160 °C; thermal stability higher compared to Z-TETRAOL (Comparative Example 11C) [1]: ≥ 85 °C
CCCCCCCCCCCCCCCCCC[n+]1ccn(CCCO)c1CCCCCCCCCCCCCCCCC.O=S(=O)([N-]S(=O)(=O)C(F)(F)C(F)(F)C(F)(F)C(F)(F)F)C(F)(F)C(F)(F)C(F)(F)C(F)(F)F [Example 8A, bis(nonafluorobutanesulfonyl)imide-1-3′hydroxypropyl-2-heptadecyl-3-octadecylimidazolium]	327.8	364.3	398.8	–
CCCCCCCCCCCCCC[N+](C)(C)CCCO.O=S(=O)([N-]S(=O)(=O)C(F)(F)C(F)(F)C(F)(F)C(F)(F)F)C(F)(F)C(F)(F)C(F)(F)C(F)(F)F [Example 9A, bis(nonafluorobutanesulfonyl)imide-N-3′hydroxypropyl-N,N-dimethyltetradecylammonium]	340.0	359.0	375.0	–
CCCCCCCCCCCCCCCCCC[N+](C)(C)CCCO.O=S(=O)([N-]S(=O)(=O)C(F)(F)C(F)(F)C(F)(F)C(F)(F)F)C(F)(F)C(F)(F)C(F)(F)C(F)(F)F [Example 10A, bis(nonafluorobutanesulfonyl)imide-N-3′hydroxypropyl-N,N-dimethyloctadecylammonium]	336.5	359.4	376.6	–
O=S(=O)(NS(=O)(=O)C(F)(F)C(F)(F)C(F)(F)C(F)(F)F)C(F)(F)C(F)(F)C(F)(F)C(F)(F)F [bis(nonafluorobutanesulfonyl)imide]	–	–	–	pKa [2]: 0.0
O=S1(=O)NS(=O)(=O)C(F)(F)C(F)(F)C1(F)F [hexafluorocyclopropane-1,3-bis(sulfonyl)imide]	–	–	–	pKa [2]: −0.8
F[B-](F)(F)F.[H+] [tetrafluoroboric acid]	–	–	–	pKa [2]: 1.8
bis(nonafluorobutanesulfonyl)imide-1-dodecyl-2-undecyl-3-3′hydroxypropyloctadecylimidazolium [Example 7A]	350.9	373.7	394.8	–
heptadecafluorooctanesulfonic acid-6-octadecyl-1,8-diazabicyclo[5.4.0]-7-undecenium	361.9	382.7	403.5	–
heptadecafluorooctanesulfonic acid-6-octadecyl-1,8-diazabicyclo[5.4.0]-7-undecenium [Comparative Example 3A]	–	–	–	Fluorine-based solvent solubility [3]: Less than 0.1% by % by mass
nonafluorobutanesulfonic acid-1-octadecyl-2-heptadecylimidazolium	338.2	365.9	390.1	–
nonafluorobutanesulfonic acid-1-octadecylimidazolium	349.3	375.0	397.5	–
nonafluorobutanesulfonic acid-N,N,N-trimethyloctadecylammonium [Comparative Example 9A, reference compound]	340.5	356.2	371.9	–
pentadecafluorooctanoic acid octadecylammonium [Comparative Example 5A, reference compound]	206.9	215.8	223.4	Fluorine-based solvent solubility [3]: Less than 0.1% by % by mass
pentadecafluorooctanoic acid octadecylammonium [pentadecafluorooctanoic acid octadecylammonium]	206.9	215.8	223.4	–
perfluorocyclopropane sulfoimide	–	–	–	pKa [2]: −0.8
